Where “and” joins values, the source holds several entries; their conditions need not be identical. Identical values can stand only once.
Test system: carrageenan-induced mechanical hyperalgesia in rats
Assay: Carrageenan-induced mechanical hyperalgesia, paw pressure test, time course to 240 min (Example 2)
Assay type: in vivo, male Sprague-Dawley rats
Description: In this model, inflammation is induced by intraplantar injection of carrageenan (2%) into the right hindpaw of the rat. Three hours later, reaction thresholds are measured using the paw pressure test. Pressure is gradually applied to both hind paws (inflamed and control) of the rat, and reaction thresholds are determined as the pressure (g) required to elicit paw withdrawal or vocalization. Morphine (3 mg/kg, s.c.) was used as a positive control.
The experiments in this study used fifty (50) male Sprague-Dawley rats (SPF status, Janvier, France), each weighing 204-260 grams. The rats were housed in a temperature (20-24° C.) and relative humidity (45%-65%) controlled room and acclimated to an artificial day/night cycle of 12 hours light (6.30 a.m. to 6.30 p.m.)/12 hours darkness. Rats had free access to sterilized tap water and were fed ad libitum with pelleted complete diet (reference A04, S.A.F.E.). Rats were housed 4 per cage (cages Type E) and were acclimated for a period of at least 5 days before any testing. Each rat was identified by tail markings. Based on the SPF status of the animal facilities, there is no reason to expect that contaminants were present in the food, water or bedding, at levels capable of interfering with the results of the tests.
Pain Test: Static mechanical hyperalgesia was assessed using the Paw Pressure test or Randall & Selitto test (Randall, L. O. and Selitto, J. J., A method for measurement of analgesic activity on inflamed tissue, Arch Int Pharmacodyn, 1957(111): 409-419). This test requires the application of an increasing pressure on the hind paws between a flat surface and a blunt pointer. This test is usually used with animals with one hind paw inflamed by an injection or injured by ligation, and one normal hind paw, to evaluate drugs for analgesic action. The apparatus exerts a steadily increasing force and reaction threshold is determined as the pressure (g) required to elicit paw withdrawal and/or vocalization. In the experiment, animals were gently handled by the experimenter and static mechanical hyperalgesia was assessed. Each reaction threshold measurement was done for both hind paws.
Five (5) experimental groups of 10 rats each were used. Each group was first injected with of 100 μL of a 2% carrageenan suspension in the plantar aspect of the right hindpaw. Three hours after carrageenan injection, paw withdrawal threshold was measured using the paw pressure test (Baseline). The 5 groups were then administered the following: • Group 1: vehicle (0.5% HPMC), i.p., solution (negative control); • Group 2: MIN-117 (0.01 mg/kg, i.p.) in 0.5% HPMC, suspension; • Group 3: MIN-117 (0.1 mg/kg, i.p.) in 0.5% HPMC, suspension; • Group 4: MIN-117 (1 mg/kg, i.p.) in 0.5% HPMC, suspension; and • Group 5: morphine (3 mg/kg, s.c.) in 0.9% NaCl, solution (positive control).
After administering vehicle, MIN-117, or morphine, the antihyperalgesic effect of the compounds was evaluated using the paw pressure test at 0 min. (T0), 30 min., 60 min., 120 min., and 240 min.
Vehicle and MIN-117 were administered intraperitoneally at 10 mL/kg. Morphine was subcutaneously administered at 5 mL/kg. Dosing and testing were performed in a random order by a blinded experimenter except for the morphine-treated group. Doses were expressed in terms of free active substance. Rats were sacrificed at the end of the experiment by CO2 inhalation pending subsequent removal by a certified company.
Results were assessed as: the paw withdrawal threshold (mean±s.e.m.) in grams of contact pressure for each group, calculated from individual paw withdrawal thresholds; the percentage of variation of the paw withdrawal threshold calculated from the mean value of the vehicle-treated group; and/or the percentage of activity. To determine a statistical effect of the test substance and the reference substance, data were analyzed by a non-parametrical test. The significance level was p<0.05.

[1] = 0.01 mg/kg i.p., 30 min, hydrochloride
[2] = 0.01 mg/kg i.p., 60 min, hydrochloride
[3] = 0.01 mg/kg i.p., 120 min, hydrochloride
[4] = 0.01 mg/kg i.p., 240 min, hydrochloride
[5] = 0.01 mg/kg i.p., Baseline, hydrochloride
[6] = 0.01 mg/kg i.p., T0 (baseline before dosing)
[7] = 0.01 mg/kg i.p., T0 (baseline before dosing), hydrochloride
[8] = 0.01 mg/kg i.p., T0 + 30 min, hydrochloride
[9] = 0.01 mg/kg i.p., T0 + 60 min, hydrochloride
[10] = 0.1 mg/kg i.p., 30 min, hydrochloride
[11] = 0.1 mg/kg i.p., 60 min, hydrochloride
[12] = 0.1 mg/kg i.p., 120 min, hydrochloride
[13] = 0.1 mg/kg i.p., 240 min, hydrochloride
[14] = 0.1 mg/kg i.p., Baseline, hydrochloride
[15] = 0.1 mg/kg i.p., T0 (baseline before dosing)

Q: `Cc1nnc(-c2cc3c(OC[C@@H](O)CN4CCC(c5ccc(Cl)c(Cl)c5)CC4)cccc3o2)o1.Cl` [MIN-117, (2S)-1-(4-(3,4-dichlorophenyl)piperidin-1-yl)-3-((2-(5-methyl-1,3,4-oxadiazol-2-yl)benzofuran-4-yl)oxy)propan-2-ol hydrochloride] was tested. Which “Nociceptive threshold, control paw, individual rats” value [1] did it give?
A: 360 g (4×) and 380 g (3×) and 420 g and 340 g and 280 g

Q: What about the “Nociceptive threshold, injured paw, individual rats” value [1] of the same compound?
A: 180 g (3×) and 220 g and 160 g (2×) and 140 g (2×) and 200 g (2×)

Q: And the “Nociceptive threshold, control paw, individual rats” value [2]?
A: 380 g and 340 g (3×) and 320 g (2×) and 360 g (2×) and 420 g and 300 g

Q: What about the “Nociceptive threshold, injured paw, individual rats” value [2] of the same compound?
A: 220 g (3×) and 160 g (3×) and 180 g (2×) and 140 g (2×)

Q: And the “Nociceptive threshold, control paw, individual rats” value [3]?
A: 440 g and 360 g (2×) and 340 g and 320 g and 400 g (2×) and 420 g (2×) and 380 g

Q: What about the “Nociceptive threshold, injured paw, individual rats” value [3] of the same compound?
A: 300 g and 180 g (2×) and 160 g (2×) and 200 g (4×) and 220 g

Q: And the “Nociceptive threshold, control paw, individual rats” value [4]?
A: 340 g and 360 g (2×) and 380 g (2×) and 300 g and 320 g (3×) and 420 g

Q: And the “Nociceptive threshold, injured paw, individual rats” value [4]?
A: 200 g (3×) and 180 g (4×) and 160 g (2×) and 140 g

Q: What about the “Nociceptive threshold, control paw, individual rats” value [5] of the same compound?
A: 400 g (3×) and 380 g (3×) and 320 g and 360 g and 340 g (2×)

Q: What about the “Nociceptive threshold, injured paw, individual rats” value [5] of the same compound?
A: 240 g and 180 g (5×) and 200 g (2×) and 160 g (2×)

Q: What about the “% activity, injured paw” value [6] of the same compound?
A: 2%

Q: What about the “% variation vs control paw, injured paw” value [6] of the same compound?
A: −50%

Q: And the “% variation vs vehicle-treated group, injured paw” value [6]?
A: 2%

Q: And the “Nociceptive threshold, control paw (mean ± s.e.m.)” value [7]?
A: 370.0 ± 9.1 g and 370 g

Q: What about the “Nociceptive threshold, injured paw (mean ± s.e.m.)” value [7] of the same compound?
A: 186 ± 7.3 g and 186 g

Q: What about the “% activity, injured paw” value (0.01 mg/kg i.p., T0 + 30 min) of the same compound?
A: −1%

Q: And the “% variation vs control paw, injured paw” value (0.01 mg/kg i.p., T0 + 30 min)?
A: −51%

Q: What about the “% variation vs pre-drug threshold, injured paw” value (0.01 mg/kg i.p., T0 + 30 min) of the same compound?
A: −5%

Q: What about the “Nociceptive threshold, control paw (mean ± s.e.m.)” value (0.01 mg/kg i.p., T0 + 30 min) of the same compound?
A: 362 g

Q: And the “% variation vs vehicle-treated group, injured paw” value [8]?
A: −1% and 1%

Q: And the “Nociceptive threshold, injured paw (mean ± s.e.m.)” value [8]?
A: 176 ± 8.3 g and 176 g

Q: And the “% activity, injured paw” value (0.01 mg/kg i.p., T0 + 60 min)?
A: −6%

Q: And the “% variation vs control paw, injured paw” value (0.01 mg/kg i.p., T0 + 60 min)?
A: −49%

Q: And the “% variation vs pre-drug threshold, injured paw” value (0.01 mg/kg i.p., T0 + 60 min)?
A: −4%

Q: What about the “Nociceptive threshold, control paw (mean ± s.e.m.)” value (0.01 mg/kg i.p., T0 + 60 min) of the same compound?
A: 348 g

Q: And the “% variation vs vehicle-treated group, injured paw” value [9]?
A: −5% and 5%

Q: And the “Nociceptive threshold, injured paw (mean ± s.e.m.)” value [9]?
A: 178 ± 10.1 g and 178 g

Q: What about the “% activity, injured paw” value (0.01 mg/kg i.p., T0 + 120 min) of the same compound?
A: 9%

Q: And the “% variation vs control paw, injured paw” value (0.01 mg/kg i.p., T0 + 120 min)?
A: −48%

Q: What about the “% variation vs pre-drug threshold, injured paw” value (0.01 mg/kg i.p., T0 + 120 min) of the same compound?
A: 8%

Q: And the “% variation vs vehicle-treated group, injured paw” value (0.01 mg/kg i.p., T0 + 120 min)?
A: 8%

Q: And the “Nociceptive threshold, control paw (mean ± s.e.m.)” value (0.01 mg/kg i.p., T0 + 120 min)?
A: 384 g

Q: What about the “Nociceptive threshold, injured paw (mean ± s.e.m.)” value (0.01 mg/kg i.p., T0 + 120 min, hydrochloride) of the same compound?
A: 200 ± 12.6 g and 200 g

Q: What about the “% activity, injured paw” value (0.01 mg/kg i.p., T0 + 240 min) of the same compound?
A: −5%

Q: And the “% variation vs control paw, injured paw” value (0.01 mg/kg i.p., T0 + 240 min)?
A: −49%

Q: What about the “% variation vs pre-drug threshold, injured paw” value (0.01 mg/kg i.p., T0 + 240 min) of the same compound?
A: −4%

Q: What about the “% variation vs vehicle-treated group, injured paw” value (0.01 mg/kg i.p., T0 + 240 min) of the same compound?
A: −4%

Q: And the “Nociceptive threshold, control paw (mean ± s.e.m.)” value (0.01 mg/kg i.p., T0 + 240 min)?
A: 350 g

Q: And the “Nociceptive threshold, injured paw (mean ± s.e.m.)” value (0.01 mg/kg i.p., T0 + 240 min, hydrochloride)?
A: 178 ± 6.3 g and 178 g

Q: And the “Effect on injured paw withdrawal threshold vs vehicle-treated group (in words)” value (0.01 mg/kg i.p., time course 30-240 min)?
A: did not induce any significant increase

Q: And the “Nociceptive threshold, control paw, individual rats” value [10]?
A: 440 g and 320 g (3×) and 460 g and 300 g and 360 g and 340 g (3×)

Q: What about the “Nociceptive threshold, injured paw, individual rats” value [10] of the same compound?
A: 200 g (4×) and 160 g (2×) and 180 g (4×)

Q: What about the “Nociceptive threshold, control paw, individual rats” value [11] of the same compound?
A: 360 g (3×) and 300 g (2×) and 420 g and 400 g and 320 g (2×) and 340 g

Q: What about the “Nociceptive threshold, injured paw, individual rats” value [11] of the same compound?
A: 180 g (2×) and 140 g and 160 g (3×) and 200 g (3×) and 220 g

Q: And the “Nociceptive threshold, control paw, individual rats” value [12]?
A: 380 g and 280 g and 420 g (2×) and 300 g and 340 g (3×) and 360 g (2×)

Q: What about the “Nociceptive threshold, injured paw, individual rats” value [12] of the same compound?
A: 160 g (3×) and 140 g and 220 g and 200 g (2×) and 180 g (3×)

Q: What about the “Nociceptive threshold, control paw, individual rats” value [13] of the same compound?
A: 400 g (2×) and 320 g and 340 g and 280 g and 360 g (3×) and 380 g and 300 g

Q: What about the “Nociceptive threshold, injured paw, individual rats” value [13] of the same compound?
A: 180 g (3×) and 160 g (3×) and 140 g and 220 g (2×) and 200 g

Q: And the “Nociceptive threshold, control paw, individual rats” value [14]?
A: 420 g (2×) and 380 g (2×) and 400 g (2×) and 360 g (2×) and 340 g and 320 g

Q: And the “Nociceptive threshold, injured paw, individual rats” value [14]?
A: 200 g (3×) and 180 g (3×) and 160 g (4×)

Q: What about the “% activity, injured paw” value [15] of the same compound?
A: −2%

Q: What about the “% variation vs control paw, injured paw” value [15] of the same compound?
A: −53%

Q: And the “% variation vs vehicle-treated group, injured paw” value [15]?
A: −2%

Q: What about the “Nociceptive threshold, control paw (mean ± s.e.m.)” value (0.1 mg/kg i.p., T0 (baseline before dosing), hydrochloride) of the same compound?
A: 378.0 ± 10.5 g and 378 g
